Experimental data: ChEMBL document CHEMBL2074007, “Characterization of the transport of nucleoside analog drugs by the human multidrug resistance proteins MRP4 and MRP5” (Mol Pharmacol, 2003)

Tests used:
[1] = biological target: T1, ATP-binding cassette sub-family C member 4 (Homo sapiens, UniProt O15439); assay type: functional, cell-based, HEK293
T1 sequence (O15439 whole entry): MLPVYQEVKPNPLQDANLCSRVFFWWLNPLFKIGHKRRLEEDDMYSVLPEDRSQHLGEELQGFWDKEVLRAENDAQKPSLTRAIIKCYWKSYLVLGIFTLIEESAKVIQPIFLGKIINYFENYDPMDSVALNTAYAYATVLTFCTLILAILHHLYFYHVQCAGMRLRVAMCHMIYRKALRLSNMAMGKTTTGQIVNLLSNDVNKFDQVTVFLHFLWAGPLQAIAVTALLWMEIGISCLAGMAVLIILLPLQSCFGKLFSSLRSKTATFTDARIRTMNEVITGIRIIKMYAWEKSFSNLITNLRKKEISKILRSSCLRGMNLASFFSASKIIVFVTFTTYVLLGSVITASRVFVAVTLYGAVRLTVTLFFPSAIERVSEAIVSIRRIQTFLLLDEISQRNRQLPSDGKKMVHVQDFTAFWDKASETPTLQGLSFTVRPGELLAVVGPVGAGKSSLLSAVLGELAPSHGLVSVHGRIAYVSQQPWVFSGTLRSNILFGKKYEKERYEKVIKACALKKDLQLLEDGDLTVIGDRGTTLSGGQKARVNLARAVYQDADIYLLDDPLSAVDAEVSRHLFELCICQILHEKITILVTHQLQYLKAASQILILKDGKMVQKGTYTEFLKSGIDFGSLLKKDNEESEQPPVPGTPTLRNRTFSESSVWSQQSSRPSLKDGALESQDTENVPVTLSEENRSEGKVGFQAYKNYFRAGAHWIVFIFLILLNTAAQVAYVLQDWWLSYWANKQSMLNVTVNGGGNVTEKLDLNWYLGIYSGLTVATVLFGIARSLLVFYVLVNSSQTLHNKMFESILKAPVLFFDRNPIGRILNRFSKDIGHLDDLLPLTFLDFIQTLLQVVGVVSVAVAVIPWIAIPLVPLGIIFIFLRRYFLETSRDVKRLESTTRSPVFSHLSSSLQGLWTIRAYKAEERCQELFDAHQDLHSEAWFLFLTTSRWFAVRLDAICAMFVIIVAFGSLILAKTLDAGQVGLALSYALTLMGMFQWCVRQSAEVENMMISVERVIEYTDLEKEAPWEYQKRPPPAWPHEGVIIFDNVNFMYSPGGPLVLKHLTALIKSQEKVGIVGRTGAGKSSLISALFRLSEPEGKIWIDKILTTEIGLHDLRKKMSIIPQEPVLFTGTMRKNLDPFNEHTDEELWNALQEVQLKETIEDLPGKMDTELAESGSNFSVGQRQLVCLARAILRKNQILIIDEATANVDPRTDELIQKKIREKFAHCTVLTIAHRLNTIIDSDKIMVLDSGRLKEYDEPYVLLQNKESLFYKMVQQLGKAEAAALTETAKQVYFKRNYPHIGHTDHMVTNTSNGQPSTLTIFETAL

[2] = biological target: ATP-binding cassette sub-family C member 5 (Homo sapiens, UniProt O15440); assay type: functional, cell-based, HEK293
MRP5 (ABCC5) = MRP5 (ABCC5) (Homo sapiens, UniProt O15440); experiment: TP_TRANSPORTER: inhibition of alaninyl-d4TMP uptake (alaninyl-d4TMP: 1 uM, Zaprinast: 100uM) in MRP5-expressing HEK293 cells; assay type: functional, cell-based; design: scale not given: the % may be the effect or the level left; details: probe alaninyl-d4TMP (1 uM), read-out: Activity
MRP4 (ABCC4) = biological target: T2, MRP4 (ABCC4) (Homo sapiens, UniProt O15439); experiment: TP_TRANSPORTER: inhibition of E217betaG uptake (E217betaG: 30 uM, Zaprinast: 100uM) in MRP4-expressing HEK293 cells; assay type: functional, cell-based; design: scale not given: the % may be the effect or the level left; details: probe E217betaG (30 uM), read-out: Activity
T2 sequence (O15439 whole entry): T1 sequence (O15439 whole entry)

Chain of ATP-binding cassette sub-family C member 5 (O15440 whole entry): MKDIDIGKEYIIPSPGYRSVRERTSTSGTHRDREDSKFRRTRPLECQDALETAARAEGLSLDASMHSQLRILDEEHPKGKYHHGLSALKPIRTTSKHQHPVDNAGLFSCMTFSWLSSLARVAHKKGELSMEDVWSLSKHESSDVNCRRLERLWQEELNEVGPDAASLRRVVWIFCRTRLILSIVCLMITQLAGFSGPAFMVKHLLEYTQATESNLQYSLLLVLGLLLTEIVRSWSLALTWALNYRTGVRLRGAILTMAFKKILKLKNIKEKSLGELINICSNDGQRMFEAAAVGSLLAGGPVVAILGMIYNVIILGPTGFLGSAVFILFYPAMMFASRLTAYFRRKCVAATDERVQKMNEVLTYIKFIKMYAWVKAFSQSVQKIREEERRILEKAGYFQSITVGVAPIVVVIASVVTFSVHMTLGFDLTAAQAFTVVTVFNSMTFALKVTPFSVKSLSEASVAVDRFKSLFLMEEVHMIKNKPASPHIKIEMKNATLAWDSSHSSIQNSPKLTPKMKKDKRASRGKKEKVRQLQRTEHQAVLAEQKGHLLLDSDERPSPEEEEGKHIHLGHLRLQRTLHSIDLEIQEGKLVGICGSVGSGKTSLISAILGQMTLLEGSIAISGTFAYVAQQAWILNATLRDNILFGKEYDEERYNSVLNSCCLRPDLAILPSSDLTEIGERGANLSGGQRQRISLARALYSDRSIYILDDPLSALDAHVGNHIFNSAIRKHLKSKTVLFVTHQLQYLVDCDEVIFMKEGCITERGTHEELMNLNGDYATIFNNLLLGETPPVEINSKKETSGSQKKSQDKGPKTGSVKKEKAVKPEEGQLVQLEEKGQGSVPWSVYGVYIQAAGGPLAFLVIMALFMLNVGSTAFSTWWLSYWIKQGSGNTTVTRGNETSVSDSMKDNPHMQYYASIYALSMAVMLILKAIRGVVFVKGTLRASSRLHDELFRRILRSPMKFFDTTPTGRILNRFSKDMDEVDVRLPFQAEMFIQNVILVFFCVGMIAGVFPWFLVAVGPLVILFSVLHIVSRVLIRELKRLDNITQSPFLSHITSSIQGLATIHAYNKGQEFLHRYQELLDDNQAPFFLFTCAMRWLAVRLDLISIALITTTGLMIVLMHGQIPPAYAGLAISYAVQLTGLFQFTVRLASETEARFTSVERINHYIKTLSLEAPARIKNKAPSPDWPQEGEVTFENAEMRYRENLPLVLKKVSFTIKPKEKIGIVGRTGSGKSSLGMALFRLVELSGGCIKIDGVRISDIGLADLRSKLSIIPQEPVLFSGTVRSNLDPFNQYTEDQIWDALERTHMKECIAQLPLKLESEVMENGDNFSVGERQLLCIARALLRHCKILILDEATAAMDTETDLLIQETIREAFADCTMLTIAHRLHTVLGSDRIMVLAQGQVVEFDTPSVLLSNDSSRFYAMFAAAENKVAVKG
Chain of MRP5 (ABCC5) (O15440 whole entry): as above

IC50 [1]	IC50 [2]	activity at 100 µM (MRP5 (ABCC5))	activity at 100 µM (MRP4 (ABCC4))	Structure (SMILES)
10 µM	30 µM			COc1cc2c(cc1OC)-c1c/c(=N\c3c(C)cc(C)cc3C)n(C)c(=O)n1CC2 [TREQUINSIN]
		37%	48%	Nc1nc2c(ncn2[C@@H]2O[C@@H]3COP(=O)(O)O[C@H]3[C@H]2O)c(=O)[nH]1
75 µM				O=[N+]([O-])c1ccc(CSc2ncnc3c2ncn3[C@@H]2O[C@H](CO)[C@@H](O)[C@H]2O)cc1 [NITROBENZYLMERCAPTOPURINE RIBONUCLEOSIDE]
		12%	7%	CCCOc1ccccc1-c1nc2nn[nH]c2c(=O)[nH]1 [ZAPRINAST]
	40 µM			CN(C)C(=O)CCSC(SCCC(=O)O)c1cccc(/C=C/c2ccc3ccc(Cl)cc3n2)c1 (stereo not given) [MK-571]
20 µM	> 50 µM			COc1cc(C(=O)OCCCN2CCCN(CCCOC(=O)c3cc(OC)c(OC)c(OC)c3)CC2)cc(OC)c1OC [DILAZEP]
